Test system: L. donovani (MHOM/SD/62/1S-CL2D, LdBOB) axenic amastigotes
Experiment: Leishmania donovani axenic amastigote dose response assay (resazurin)
Assay type: cell-based
Conditions: -logIC50 mol against L. donovani (LdBOB) axenic amastigotes, read-out: pIC50 Axenic (converted)

N#Cc1ccc(NCCOc2ccc3ccccc3c2)nc1 [ST/1543199]
IC50: > 50 µM

CN1CCC(Oc2cccc(C(=O)N3CCC(CNS(=O)(=O)c4cccc(F)c4)CC3)c2)CC1 [DS205504-126A32B5C8]
IC50: > 50 µM

Fc1ccc(-c2nc(-c3cccs3)[nH]c2-c2ccncc2)cc1 [JMS-15898-298-1]
IC50: 20.9 µM

CC1CSC(N(C(=O)CCc2ccco2)c2ccc(Cl)cc2)=N1 (stereo not shown) [ST/816400]
IC50: 21.9 µM

O=C(Nc1cccc(C(F)(F)F)c1)c1cc(-c2cccc(O)c2)on1 [ST/728737]
IC50: > 50 µM

CCc1ccccc1NC(=O)c1cc(-c2ccc(Cl)cc2)oc1C [ST/1545686]
IC50: > 50 µM

O=C(Nc1ccc(F)c(Cl)c1)c1cc(-c2ccc(O)cc2)on1 [ST/1440432]
IC50: 10.5 µM

CC(NC(=O)c1c(O)c2sccc2[nH]c1=O)c1ccc(F)cc1 (stereo not shown) [ST/1962332]
IC50: > 50 µM

CC(=O)N1N=C(c2ccccc2Cl)OC1COc1ccc(Cl)cc1 (stereo not shown) [ST/1451125]
IC50: 15.8 µM

O=C(Nc1ccc(OC(F)(F)F)cc1)c1ccc(Br)s1 [ST/631944]
IC50: 13.2 µM

CN1CCN(CC(=O)Nc2ccc3c(c2)CCC3)CC1c1ccccc1 (stereo not shown) [ST/961462]
IC50: > 50 µM

Nc1ccc(Br)cc1-c1nc(N)c2cc(Br)ccc2n1 [N4309-86-B1]
IC50: > 50 µM

O=C(NCc1cccs1)c1sccc1NS(=O)(=O)c1ccccc1 [RF44798-098A21]
IC50: 12.3 µM

C=CCNc1nc(N)c([N+](=O)[O-])c(Nc2cccc(F)c2)n1 [ST/892571]
IC50: > 50 µM

Brc1ccc(OCc2nc3ccccc3[nH]2)cc1 [ST/839801]
IC50: 49 µM

COc1cccc(C(=O)Nc2nc(-c3cccs3)ns2)c1 [ST/1197587]
IC50: 21.9 µM

Cc1cc(Cl)ccc1NC(=O)COc1ccccc1NS(=O)(=O)c1cccs1 [N6862-82-1]
IC50: 20 µM

COc1ccc(-c2ccc(S(=O)(=O)Nc3ncc(Cl)cc3Cl)s2)cc1 [DJ107456-088A34]
IC50: 27.5 µM

CN1CCN(c2ccc3ncc(-c4cccc(NC(=O)Cc5cccs5)c4)n3n2)CC1 [R11466/151/4]
IC50: > 50 µM

Cc1ccc(Nc2nc(C(N)=O)c(NC(=O)C3CCC3)s2)cc1 [ST/1548033]
IC50: > 50 µM

Cc1ccc2cc(C(=O)Nc3ccc(C)c(N)c3)sc2c1 [ST/551412]
IC50: 20.4 µM

CCOc1ccc2[nH]c(=O)c(CN(Cc3cccnc3)C(=O)Nc3ccc(F)cc3)cc2c1 [ST/696972]
IC50: > 50 µM

Cc1ccc2[nH]c(COc3ccc(Cl)cc3)nc2c1 [ST/743143]
IC50: 29.5 µM

Cc1cc(O)c(Cl)c(C)c1NS(=O)(=O)c1ccc(Br)cc1 [ST/835722]
IC50: 26.9 µM

O=c1c(O)c(-c2ccccc2)oc2cc(O)cc(O)c12 [ST/2097267]
IC50: 20.4 µM

COc1ccc(S(=O)(=O)Nc2cc(Cl)ccc2C)c(C)c1C [ST/724177]
IC50: 19.1 µM

O=C(Nc1ccon1)c1cc2c(s1)CCCCCC2 [ST/1100321]
IC50: 19.5 µM

O=S(=O)(Nc1ccccc1C(F)(F)F)c1ccc(-c2cccs2)s1 [DJ107456-053A67]
IC50: 14.8 µM

O=S(=O)(Nc1cccc2nsnc12)c1ccccc1 [ST/663705]
IC50: 39.8 µM

COc1ccc(C(=O)c2nocc2C(=O)c2ccc(Cl)cc2)cc1 [ST/261550]
IC50: 44.7 µM

Nc1ccc(S(=O)(=O)Nc2ccccc2Oc2ccc(Cl)cc2Cl)cc1 [SC/79553]
IC50: 10.5 µM

O=C(c1ccco1)c1cn(Cc2ccc(F)cc2)c2ccccc12 [ST/727705]
IC50: 28.8 µM

O=S(=O)(Nc1cccc(F)c1CNCc1ccco1)c1ccc(Cl)c(Cl)c1 [DS105792-055A6B42]
IC50: 19.5 µM

CCOc1cc(S(=O)(=O)N2CCN(Cc3ccc4c(c3)OCO4)CC2)ccc1Br [ST/910382]
IC50: 21.4 µM

CC1CCc2c(sc(NC(=O)c3cccs3)c2C#N)C1 (stereo not shown) [SC/95708]
IC50: > 50 µM

O=S(=O)(Nc1ccccc1Br)c1ccc(Cl)c(C(F)(F)F)c1 [ST/630987]
IC50: 19.1 µM

CCc1ccc2c(c1)c(=O)c(C(=O)O)cn2CC(F)(F)F [ST/2184718]
IC50: 36.3 µM

Nc1ncc(-c2ccccc2)cc1-c1nc2ccccc2[nH]1 [U18123/163/3]
IC50: 37.2 µM

COc1cccc2[nH]c(C(=O)Nc3cccc(Cl)c3)cc12 [ST/803957]
IC50: 12.3 µM

FC(F)(F)c1ccc(Nc2nc(-c3ccncc3)cs2)cc1 [ST/510927]
IC50: 27.5 µM

CCCCCc1c(C)nc(Nc2ccccc2)[nH]c1=O [ST/1105254]
IC50: 17.4 µM

Cc1ccccc1S(=O)(=O)N1CCN(c2nccc(-c3cccs3)n2)CC1 [ST/1415177]
IC50: 21.9 µM

Cc1cnc(NS(=O)(=O)c2ccc(-c3ccc(F)cc3)s2)c(Br)c1 [DJ107456-057A22]
IC50: 28.2 µM

CCc1noc2nc(C)nc(NC3CCCCCC3)c12 [ST/1113587]
IC50: 46.8 µM

COc1ccccc1-c1nc(-c2ccc(O)c(C(N)=O)c2)cs1 [ST/1261284]
IC50: 33.1 µM

CCOc1cccc(C(=O)Nc2cc(-c3nc4ccccc4[nH]3)ccc2C)c1 [ST/591387]
IC50: 15.8 µM

Cc1ncccc1Oc1ncc(Cl)cc1S(=O)(=O)Nc1cc(Cl)ccc1F [AV207107-102A1]
IC50: 12.6 µM

CCOc1cc2c(cc1S(=O)(=O)c1ccc(COc3ccc(F)cc3)cc1)CCN(C)CC2 [AL101938-139A1]
IC50: 31.6 µM

OC(CCC1CCCCC1)(Cn1ccnc1)c1ccc(F)cc1F (stereo not shown) [JJP/1777/3]
IC50: 14.1 µM

Nc1ccc(-c2nc3cc(Cl)cc(Cl)c3o2)cc1 [ST/525525]
IC50: 49 µM

O=C(Nc1c(Br)c(C2CC2)nn1-c1ccccc1)C(Cl)(Cl)Cl [SC/96415]
IC50: 20.4 µM

CSc1ccccc1NS(=O)(=O)c1cccs1 [ST/867134]
IC50: > 50 µM

Cc1ccnc2nc(C(=O)N3CCCSC3=Nc3cccc(C(F)(F)F)c3)nn12 [ST/682329]
IC50: 31.6 µM

CCn1cc(C(=O)O)c(=O)c2cc(F)ccc21 [ST/1766829]
IC50: 24.5 µM

Cc1cccc(Nc2cccc3c(=O)[nH][nH]c(=O)c23)c1C [78/118]
IC50: > 50 µM

O=C(c1cccs1)c1conc1C(=O)c1ccc(Br)cc1 [ST/261533]
IC50: > 50 µM

O=C(O)Cc1c(-c2cccs2)nc2ccccc2c1-c1ccccc1 [ST/1080669]
IC50: 12.9 µM

Cc1ccc(C2=NN(S(=O)(=O)c3ccc(Cl)cc3F)C(C)C2)cc1 (stereo not shown) [U20197/52/94]
IC50: > 50 µM

O=C(O)c1cccc2c1C(=O)N(Cc1ccccc1F)C2 [ST/689197]
IC50: > 50 µM

O=c1nc(SCc2ccccc2F)c2c([nH]1)CCCC2 [ST/915519]
IC50: > 50 µM

CSc1nsc(NC(=O)Nc2ccc(Cl)cc2)n1 [ST/905433]
IC50: 30.2 µM

O=C(Nc1cc(Cl)c(O)c(Cl)c1)c1ccc(Br)cc1 [ST/869684]
IC50: 17.8 µM

O=S(=O)(Nc1cccc2nsnc12)c1cccs1 [SC/96769]
IC50: 24.5 µM

CCOc1nc2ccccc2nc1NS(=O)(=O)c1ccccc1 [ST/646349]
IC50: 22.9 µM

CC(c1ccccc1)N1Cc2cccc(C(=O)O)c2C1=O (stereo not shown) [ST/641236]
IC50: > 50 µM

O=S(=O)(Nc1cc(Cl)ccc1O)c1ccc(Cl)c(Cl)c1 [R10040/200/6]
IC50: 12 µM

COc1ccc(S(=O)(=O)Nc2ccccc2C(F)(F)F)c(Cl)c1Cl [ST/534228]
IC50: 19.5 µM

CN(C)CCNc1ccc2ncc(-c3ccc4ccccc4c3)n2n1 [ST/668081]
IC50: > 50 µM

O=S(=O)(Nc1ccccc1CN1CCC(F)(F)C1)c1ccc(Cl)c(Cl)c1 [DS105792-004A16B1]
IC50: 22.4 µM

O=C(Nc1ccc(NC(=O)c2cccs2)cc1Cl)c1ccccc1 [ST/1125044]
IC50: > 50 µM

O=C(Nc1nnc(C(F)(F)F)s1)c1ccc(Br)s1 [ST/782334]
IC50: 11.7 µM

O[C@@](Cn1cncn1)(c1ccc(F)cc1F)C1CCOCC1 [RB/854/3]
IC50: > 50 µM

CN1CC[C@@H](Oc2cc(CNC(=O)c3ccc(Br)cc3)ccc2Cl)C1 [DZ203929-138A2]
IC50: > 50 µM

CC(=O)N1N=C(COc2ccc(Cl)c(C)c2)OC1c1ccc(C)o1 (stereo not shown) [ST/1451045]
IC50: 19.1 µM

O=C1CCc2cc(-c3csc(-c4ccsc4)n3)ccc2N1 [ST/1544102]
IC50: > 50 µM

Cc1oc2cc(O)ccc2c(=O)c1-c1nc2ccccc2s1 [ST/517902]
IC50: > 50 µM

Nc1nonc1-c1nc2c(-c3cccc(F)c3)nccc2n1C1CCNCC1 [IS203450-048A1]
IC50: 40.7 µM

CC(=O)N1N=C(COc2ccccc2Br)OC1C=Cc1ccccc1 (stereo not shown) [ST/1451035]
IC50: > 50 µM

Cc1ccc(O)c(NC(=O)c2cccc(Br)c2)c1 [ST/867278]
IC50: 21.9 µM

O=S(=O)(Nc1cccc(Cl)c1Cl)c1cccs1 [ST/906545]
IC50: 21.4 µM

CCn1ncc2c(N[C@H]3CCCC[C@H]3C(=O)O)c(C(=O)NCc3ccccc3)cnc21 [R10565/35/4]
IC50: > 50 µM

CNc1nc(N)c([N+](=O)[O-])c(Nc2cccc(Cl)c2)n1 [ST/537896]
IC50: 19.5 µM

O=C(NCc1ccc2c(c1)OCO2)c1ccccc1NS(=O)(=O)c1cccs1 [ST/1217724]
IC50: 11.5 µM

Cc1cccc(C(=O)Nc2nc(-c3cccs3)ns2)c1 [ST/1197585]
IC50: 30.9 µM

CNC(=O)CN(C)c1nc(-c2cccs2)nc2sc(C)c(C)c12 [ST/1245806]
IC50: > 50 µM

O=C(NC1=NN(c2ccc(Cl)c(Cl)c2)CC1)c1ccncc1 [N11828-23-3]
IC50: > 50 µM

O=C(Nc1nnc(COc2ccc(F)cc2)s1)c1cnccn1 [ST/389620]
IC50: 33.1 µM

Cc1c(-c2noc(-c3ccc(OC(C)C)c(Cl)c3)n2)ccc2c1CCNC2 [N11266-30-A1]
IC50: 22.4 µM

O=C(c1ccccc1)N1C(=O)C(c2ccccc2)Oc2ccccc21 (stereo not shown) [ST/629481]
IC50: 24.5 µM

N#Cc1ccc(NC(=O)c2cccs2)cc1C#N [ST/646239]
IC50: 20.9 µM

O=C(NCCc1ccccc1)c1ccccc1NS(=O)(=O)c1cccs1 [ST/648091]
IC50: 18.6 µM

Cc1ccccc1NC(=O)COc1ccccc1NS(=O)(=O)c1cccs1 [N6862-82-2]
IC50: > 50 µM

Fc1ccc(-c2nn3c(OCC(F)(F)F)cccc3c2-c2ccncc2)cc1 [U12546/102/3]
IC50: 13.5 µM

CC1CSC(N(C(=O)CN2CSCC2=O)c2ccc(Cl)cc2)=N1 (stereo not shown) [ST/812474]
IC50: > 50 µM

Fc1ccc(CNc2ncc(-c3ccncc3)c(-c3ccoc3)n2)cc1 [ST/945994]
IC50: > 50 µM

O=C(NCc1ccco1)c1ccccc1NS(=O)(=O)c1cccs1 [ST/662660]
IC50: 20.4 µM

CCc1ccccc1Oc1cncc(-c2nc3ccccc3[nH]2)n1 [ST/1138848]
IC50: > 50 µM
